Assay results: publication PMC3630250 (Clinical cancer research : an official journal of the …, 2013)

Tests used:
Balb/c mice = conditions: twice daily for 4 days; cited from earlier work
mice = conditions: cited from earlier work
[1] = tested on: IκBα phosphorylation in HEK293 cells; assay: IκBα phosphorylation after TNFα stimulation; format: cell-based; conditions: HEK293, 5 and 10 min after TNFα stimulation

Row | Compound | granulocytosis and LPS-induced mortality (Balb/c mice) | toxicity in mice (mice) | inhibition of IκBα phosphorylation and degradation at early time points [1]
1 | COc1c(Cl)cc2c([nH]c3cnccc32)c1NC(=O)c1cccnc1C [ML-120B] | resulted in granulocytosis and LPS-induced mortality | showed toxicity in mice | –
2 | NC(=O)Nc1sc(-c2ccc(F)cc2)cc1C(N)=O [TPCA1] | – | showed toxicity in mice | complete inhibition
